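48-hour exposure; five concentrations; linearly interpolated endpoints. The concentration for full growth arrest is given as TGI.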 Bounds are passed on as bounds.

Test systems include HCT-116 colon; IGROV1 ovarian; K-562 leukemia; NCI-H522 lung; MDA-MB-231 breast; RXF 393 renal; MCF7 breast; UACC-257 melanoma; MDA-N; BT-549 breast.
Assay in all cases: inhibition of tumour cell growth, NCI panel, 48 h

Regarding `CCCCN1/C(=N/Nc2n[nH]c(=O)c3ccccc23)SCC1c1ccc(Cl)cc1` (stereo not given), the TGI with HCT-116 colon was 44.8 µM; in the assay on IGROV1 ovarian, 41.1 µM; with K-562 leukemia, greater than 100 µM; in the assay on NCI-H522 lung, 37.1 µM; in the assay with MDA-MB-231 breast, 55 µM; with RXF 393 renal, 63.1 µM. The TGI was 33.2 µM in the assay with MCF7 breast and 45.6 µM in the assay with UACC-257 melanoma.
Take `O=CC12CCCN1CCC2`: the TGI in the assay with HCT-116 colon, in the assay with IGROV1 ovarian, in the assay with K-562 leukemia, with NCI-H522 lung, with MDA-MB-231 breast and in the assay with RXF 393 renal was greater than 100 µM in each case. Moreover, the TGI in the assay on MDA-N, in the assay on BT-549 breast and in the assay on UACC-257 melanoma was greater than 100 µM throughout.
With `O=C1Cc2c([nH]c3c(Br)cccc23)-c2ccccc2N1`, the TGI in the assay with IGROV1 ovarian is greater than 100 µM; with K-562 leukemia it was 56.5 µM; in the assay with MDA-MB-231 breast it was greater than 100 µM; in the assay with MCF7 breast, greater than 100 µM; in the assay with MDA-N it was greater than 100 µM; in the assay on BT-549 breast it was greater than 100 µM. Also, the TGI with UACC-257 melanoma is greater than 100 µM.
Take `CCCCCCCCCCCC1=C(O)C(=O)C=C(O)C1=O`: the TGI in the assay with HCT-116 colon came out at 30.1 µM; with IGROV1 ovarian it was 20.5 µM; with K-562 leukemia, 75.9 µM; in the assay with NCI-H522 lung, 66.5 µM; in the assay with RXF 393 renal it was 54.6 µM; with MCF7 breast it was 42.2 µM. This molecule had a TGI with UACC-257 melanoma of 16.7 µM.
As to `COc1ccc(Sc2ccccc2[N+](=O)[O-])cc1`, the TGI with HCT-116 colon was greater than 100 µM; with IGROV1 ovarian it was greater than 100 µM; with K-562 leukemia it was greater than 100 µM; with RXF 393 renal, 78.7 µM; in the assay on UACC-257 melanoma, greater than 100 µM.
As for `CCN(CCCl)c1ccc(NC(=O)c2cc(C(=O)NCCN(C)C)cc(C(=O)Nc3ccc(N(CC)CCCl)cc3)c2)cc1`, the TGI in the assay with HCT-116 colon amounted to 22.3 µM; with IGROV1 ovarian, 29.1 µM; in the assay with NCI-H522 lung, 11.4 µM; in the assay on MDA-MB-231 breast it was 34.9 µM; in the assay with RXF 393 renal it was 30.8 µM; with MCF7 breast, 19.6 µM. The TGI in the assay with MDA-N was found to be 29.6 µM; in the assay on UACC-257 melanoma it was 65.6 µM.
Regarding `Cn1c(=O)c2c(n(C)c1=O)n1c(=O)c3ccccc3nc1n2C`, the TGI with HCT-116 colon, in the assay on IGROV1 ovarian, with K-562 leukemia, in the assay with NCI-H522 lung, in the assay with MDA-MB-231 breast and in the assay with RXF 393 renal was greater than 100 µM in each case. The TGI with MCF7 breast, in the assay on BT-549 breast and in the assay with UACC-257 melanoma was greater than 100 µM each time.
In the case of `COc1cc(O)c2c(=O)c(O)c(-c3ccc(O)c(O)c3)oc2c1`, the TGI with HCT-116 colon was 45.5 µM; in the assay on IGROV1 ovarian, greater than 100 µM; in the assay with K-562 leukemia, greater than 100 µM; in the assay with NCI-H522 lung it was 25.5 µM; with MDA-MB-231 breast, 95.8 µM; with MCF7 breast it was 60.7 µM. For the same molecule, the TGI in the assay on MDA-N was greater than 100 µM; in the assay with UACC-257 melanoma, 46.1 µM.
Consider `CNc1nc(OC)c2c(n1)[n+](C)cn2C`, for which the TGI with HCT-116 colon, in the assay on IGROV1 ovarian, in the assay on K-562 leukemia, in the assay on NCI-H522 lung, in the assay on MDA-MB-231 breast and with RXF 393 renal was greater than 100 µM throughout. Further, the TGI with MDA-N, in the assay on BT-549 breast and with UACC-257 melanoma was greater than 100 µM in each case.
As for `Nc1nc2c(ccc3ccccc32)[nH]1`, the TGI in the assay with HCT-116 colon, in the assay on IGROV1 ovarian, in the assay on K-562 leukemia, with NCI-H522 lung, with MDA-MB-231 breast and in the assay with RXF 393 renal was greater than 10 µM in each case. Also, the TGI with MCF7 breast and with MDA-N was greater than 10 µM each time.
As to `O=C1C[C@@]23CCC4(CC2=CCC[C@H]3O1)OCCO4`, the TGI in the assay with HCT-116 colon, in the assay on IGROV1 ovarian, with K-562 leukemia, with NCI-H522 lung, with MDA-MB-231 breast and in the assay with RXF 393 renal was greater than 100 µM each time. Further, the TGI with MCF7 breast, in the assay with MDA-N and in the assay on UACC-257 melanoma was greater than 100 µM throughout.
With `Cn1c(=O)c(C#N)c(O)c2cc3ccccc3nc21`, the TGI in the assay with HCT-116 colon, in the assay on IGROV1 ovarian, with K-562 leukemia, with RXF 393 renal and in the assay with UACC-257 melanoma was greater than 100 µM in each case.
Turning to `CSC(=NCCCN=C(NS(=O)(=O)c1ccc(Cl)cc1)SC)NS(=O)(=O)c1ccc(Cl)cc1`, the TGI in the assay with HCT-116 colon was greater than 100 µM; in the assay with IGROV1 ovarian, greater than 100 µM; with K-562 leukemia, greater than 100 µM; in the assay with MDA-MB-231 breast, greater than 100 µM; in the assay with MCF7 breast it was 52.8 µM; in the assay with MDA-N, 61.4 µM. The TGI in the assay on UACC-257 melanoma was greater than 100 µM.
Consider `COc1ccc(NC(=S)Nc2cccc(C)n2)cc1`, for which the TGI in the assay with HCT-116 colon, in the assay on IGROV1 ovarian, in the assay with K-562 leukemia, with MDA-MB-231 breast, in the assay on RXF 393 renal and with MCF7 breast was greater than 100 µM each time. The TGI with BT-549 breast and in the assay with UACC-257 melanoma was greater than 100 µM throughout.
On to `CCOC(=O)c1c(SCCN(CC)CC)n(-c2ccccc2)c(=S)n(-c2ccccc2)c1=O`, for which the TGI with HCT-116 colon was found to be 8.13 µM; in the assay on IGROV1 ovarian, 13.2 µM; in the assay with K-562 leukemia, 4.32 µM; in the assay with NCI-H522 lung, 3.67 µM; with MDA-MB-231 breast, 9.04 µM; with RXF 393 renal, 3.28 µM. In addition, the TGI with MDA-N was determined as 7 µM; with BT-549 breast it was 18.6 µM; in the assay on UACC-257 melanoma, 5.46 µM.
`C[C@@H](c1ccccc1)N(CC#N)[C@H]1CCC[C@]1(O)/C=C/c1ccc2c(c1)OCO2`: the TGI in the assay with HCT-116 colon, with IGROV1 ovarian, in the assay on K-562 leukemia, in the assay on NCI-H522 lung, in the assay on MDA-MB-231 breast and in the assay with RXF 393 renal was greater than 25 µM in each case. In addition, the TGI is 11.5 µM with MCF7 breast, greater than 25 µM in the assay on MDA-N and greater than 25 µM in the assay with UACC-257 melanoma.

The values are drawn from PubChem BioAssay (NCI).
